Reference: a compilation of properties of binary mixtures (doi:10.1021/acs.iecr.1c02970)

Test: xn = mol fraction of the nth substance listed
Conditions: 100 kPa

CC[n+]1ccn(C)c1.CS(=O)(=O)[O-] + O
Conditions | electrical conductivity [S/m] | speed of sound [m/s] | viscosity [mPa·s]
318.15 K, x1 = 0.0181 | – | 1615.9 | –
318.15 K, x1 = 0.056 | – | 1727.8 | –
318.15 K, x1 = 0.0749 | – | 1763.5 | –
318.15 K, x1 = 0.113 | – | 1806.2 | –
318.15 K, x1 = 0.2741 | – | 1811.2 | –
318.15 K, x1 = 0.3671 | – | 1791.3 | –
318.15 K, x1 = 0.489 | – | 1766.7 | –
318.15 K, x1 = 0.6064 | – | 1748.6 | –
318.15 K, x1 = 0.7708 | – | 1731.9 | –
318.15 K, x1 = 0.9157 | – | 1719.1 | –
318.15 K, x2 = 0.0082 | – | 1717.9 | –
323.15 K, x1 = 0.002 | 1.2 | – | –
323.15 K, x1 = 0.0165 | 5.73 | – | –
323.15 K, x1 = 0.0181 | – | 1616.5 | –
323.15 K, x1 = 0.028 | 7.33 | – | –
323.15 K, x1 = 0.056 | – | 1721.3 | –
323.15 K, x1 = 0.0674 | – | – | 1.468
323.15 K, x1 = 0.07 | 8.43 | – | –
323.15 K, x1 = 0.0749 | – | 1754.8 | –
323.15 K, x1 = 0.0945 | – | 1779.5 | –
323.15 K, x1 = 0.1089 | – | – | 2.428
323.15 K, x1 = 0.1122 | 7.28 | – | –
323.15 K, x1 = 0.1848 | – | – | 4.37
323.15 K, x1 = 0.2741 | – | 1799 | –
323.15 K, x1 = 0.489 | – | 1754.8 | –
323.15 K, x1 = 0.6951 | – | 1727.9 | –
323.15 K, x1 = 0.7708 | – | 1720 | –
323.15 K, x1 = 0.9157 | – | 1707.2 | –
323.15 K, x1 = 0.9357 | – | – | 44.06
323.15 K, x2 = 0.0082 | – | 1705.9 | –
328.15 K, x1 = 0.0181 | – | 1616.2 | –
328.15 K, x1 = 0.0375 | – | 1672.1 | –
328.15 K, x1 = 0.056 | – | 1714.4 | –
328.15 K, x1 = 0.0749 | – | 1745.8 | –
328.15 K, x1 = 0.0945 | – | 1769 | –
328.15 K, x1 = 0.113 | – | 1783.9 | –
328.15 K, x1 = 0.1833 | – | 1800.7 | –
328.15 K, x1 = 0.2741 | – | 1786.7 | –
328.15 K, x1 = 0.489 | – | 1743 | –
328.15 K, x1 = 0.6064 | – | 1725 | –
328.15 K, x1 = 0.6951 | – | 1716.1 | –
328.15 K, x1 = 0.7708 | – | 1707.9 | –
328.15 K, x1 = 0.9157 | – | 1695.4 | –
333.15 K, x1 = 0.002 | 1.38 | – | –
333.15 K, x1 = 0.0165 | 6.66 | – | –
333.15 K, x1 = 0.0177 | – | – | 0.642
333.15 K, x1 = 0.0181 | – | 1615.2 | –
333.15 K, x1 = 0.028 | 8.53 | – | –
333.15 K, x1 = 0.0357 | – | – | 0.848
333.15 K, x1 = 0.0375 | – | 1667.4 | –
333.15 K, x1 = 0.0489 | 9.85 | – | –
333.15 K, x1 = 0.0674 | – | – | 1.214
333.15 K, x1 = 0.07 | 9.96 | – | –
333.15 K, x1 = 0.0749 | – | 1736.4 | –
333.15 K, x1 = 0.0945 | – | 1758.3 | –
333.15 K, x1 = 0.1089 | – | – | 1.965
333.15 K, x1 = 0.1122 | 8.86 | – | –
333.15 K, x1 = 0.113 | – | 1772.4 | –
333.15 K, x1 = 0.1848 | – | – | 3.473
333.15 K, x1 = 0.2034 | 6.33 | – | –
333.15 K, x1 = 0.2741 | – | 1774.2 | –
333.15 K, x1 = 0.3752 | 3.67 | – | –
333.15 K, x1 = 0.4263 | – | – | 9.38
333.15 K, x1 = 0.6064 | – | 1713.3 | –
333.15 K, x1 = 0.6951 | – | 1704.2 | –
333.15 K, x1 = 0.7708 | – | 1696.1 | –
333.15 K, x1 = 0.9157 | – | 1683.7 | –
333.15 K, x1 = 0.9339 | 1.16 | – | –
333.15 K, x1 = 0.9357 | – | – | 29.98
333.15 K, x2 = 0.0082 | – | 1682.3 | –
343.15 K, x1 = 0.002 | 1.59 | – | –
343.15 K, x1 = 0.0177 | – | – | 0.551
343.15 K, x1 = 0.0181 | – | 1610.8 | –
343.15 K, x1 = 0.028 | 9.78 | – | –
343.15 K, x1 = 0.0357 | – | – | 0.735
343.15 K, x1 = 0.0375 | – | 1656.3 | –
343.15 K, x1 = 0.056 | – | 1690.9 | –
343.15 K, x1 = 0.0674 | – | – | 1.026
343.15 K, x1 = 0.07 | 11.6 | – | –
343.15 K, x1 = 0.0749 | – | 1716.8 | –
343.15 K, x1 = 0.0945 | – | 1736.2 | –
343.15 K, x1 = 0.1089 | – | – | 1.629
343.15 K, x1 = 0.1122 | 10.4 | – | –
343.15 K, x1 = 0.113 | – | 1748.7 | –
343.15 K, x1 = 0.1833 | – | 1762.7 | –
343.15 K, x1 = 0.1848 | – | – | 2.831
343.15 K, x1 = 0.2034 | 7.58 | – | –
343.15 K, x1 = 0.2741 | – | 1749.3 | –
343.15 K, x1 = 0.3671 | – | 1730.3 | –
343.15 K, x1 = 0.3752 | 4.5 | – | –
343.15 K, x1 = 0.489 | – | 1707.6 | –
343.15 K, x1 = 0.6951 | – | 1680.7 | –
343.15 K, x1 = 0.9157 | – | 1660.7 | –
343.15 K, x1 = 0.9339 | 1.55 | – | –
343.15 K, x1 = 0.9357 | – | – | 21.61
343.15 K, x2 = 0.0082 | – | 1659 | –
353.15 K, x1 = 0.002 | 1.81 | – | –
353.15 K, x1 = 0.0177 | – | – | 0.475
353.15 K, x1 = 0.028 | 11.1 | – | –
353.15 K, x1 = 0.0357 | – | – | 0.625
353.15 K, x1 = 0.07 | 13.2 | – | –
353.15 K, x1 = 0.1089 | – | – | 1.37
353.15 K, x1 = 0.1122 | 12.1 | – | –
353.15 K, x1 = 0.2034 | 8.9 | – | –
353.15 K, x1 = 0.9357 | – | – | 16.3
